According to patent US7041701B2, “Triterpenoid derivatives” (Univerzita Palackeho V Olomouci, priority 2000, dated 2006):

System: Rb protein
Experiment: Rb protein phosphorylation state, SDS-PAGE/Western blot in CEM cells
Format: cell-based, human
Procedure: Since Rb protein contains multiple phosphorylation sites for CDKs, its phosphorylated form has molecular weight about 110 kDa, while the molecular weight of hypophosphorylated protein is only 105 kDa This small difference in molecular weight is enough to separate both forms by conventional SDS-PAGE electrophoresis.
CEM cells were cultured in Dulbeco's modified essential medium with 4.5 g dextrose/l, 10% of foetal calf serum, 2 mM glutamine, 100 U/ml penicillin and 100 μg/ml streptomycin with/without below indicated concentrations of betulkic acid (BA) or I.3. At selected time points, cells were harvested, washed in ice cold Hank's balanced salt solution and solubilized on ice using the SDS-PAGE sample buffer containing protease and phosphatase inhibitors (10 μg/ml of leupeptin, 10 μg/ml of aprotinin, 10 μg/ml of soybean trypsin inhibitor, 100 μmol of benzamide, 1 mM of sodium vanadate, 1 mM of NaF, 1 mM of phenylphosphate) and boiled immediately.
Total cellular proteins (100 μg/well) were separated on SDS-PAGE electrophoresis, blotted on polyvinyldifluoride membranes and total Rb protein, including proteolytic fragment(s) were detected using a pRb monoclonal antibody (Oncogene, Germany, Rb(AS5), Cat# OP66 Rev 2 Sep. 1996 EB, Clone LM95.1) and visualized by chemilumniuscence (ECL-Westeg Blotting System, Amersham). Details of the Western blot technique are described in Ausubel, F. M., Brent, R., Kingston, P E., Moore, D. D., Seidman, J. G., Smith, J. A., Struhl, K (Eds): Short Protocols-in Molecular Biology, 2nd edition, John Wiley & Sons, New York, Chichester, Brisbane, Toronto, Singapore, 1992, page 10–33–10–35.

`CC(=O)OC[C@@]1(C(=O)O)CC[C@]2(C)[C@H](CC[C@@H]3[C@@]4(C)CC[C@H](OC(C)=O)C(C)(C)[C@@H]4CC[C@]32C)C1=O` [I.3, 3β,28-diacetoxy-18-oxo-19,20,21,29,30-pentanorlupan-22-oic acid] was tested, and the “time to appearance of hypophosphorylated form of Rb” value (7 μM) was 2 h, the “time to appearance of hypophosphorylated form of Rb” value (20 μM) was 0.25 h and the “cleavage of Rb protein (42 kDa fragment, caspase activation)” value (Western blot) was “time and concentration dependent appearance of an immunoreactive fragment of Rb protein”. For the same molecule, the “dephosphorylation of Rb protein (shift 110 kDa to 105 kDa)” value (Western blot (FIG. 3)) was “rapidly dephosphorylated”.
